# Measured values reported in ChEMBL document CHEMBL1201862, “PubChem BioAssay data set” (2004).
# Activity calls are given as the source filed them. For most assays here, no stated cut-off is given here; in the data, actives have a measured EC50 and inactives only a lower limit.
# Tests used:
# [1] = Luminescence Cell-Based Dose Confirmation HTS to Identify Inhibitors of Platelet Dense Granule Release. [Related pubchem assays: 1663 (Primary HTS), 1678 (Summary of Project)]; assay type: functional
# [2] = biological target: Luciferin 4-monooxygenase (Photinus pyralis, UniProt P08659); assay: firefly luciferase enzyme inhibitors, dose response, biochemical, luminescence (AID 1891)
# Sequence of Luciferin 4-monooxygenase (P08659 whole entry): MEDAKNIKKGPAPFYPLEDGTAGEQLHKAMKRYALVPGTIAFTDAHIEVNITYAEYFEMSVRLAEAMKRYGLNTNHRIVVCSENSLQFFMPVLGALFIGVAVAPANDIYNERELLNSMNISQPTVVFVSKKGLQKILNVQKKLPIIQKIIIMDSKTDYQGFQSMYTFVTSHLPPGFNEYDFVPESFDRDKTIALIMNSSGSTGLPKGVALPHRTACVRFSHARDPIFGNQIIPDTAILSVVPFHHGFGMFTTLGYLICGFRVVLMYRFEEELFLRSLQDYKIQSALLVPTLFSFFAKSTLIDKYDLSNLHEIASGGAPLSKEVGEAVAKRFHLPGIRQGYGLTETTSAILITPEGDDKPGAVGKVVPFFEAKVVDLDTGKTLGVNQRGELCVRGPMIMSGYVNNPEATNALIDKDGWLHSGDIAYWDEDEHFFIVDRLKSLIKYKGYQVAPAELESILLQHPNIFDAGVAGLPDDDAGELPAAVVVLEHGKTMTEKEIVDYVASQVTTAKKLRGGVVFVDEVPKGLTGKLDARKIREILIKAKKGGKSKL
# [3] = biological target: T1, Zinc finger protein mex-5 (Caenorhabditis elegans, UniProt Q9XUB2); assay: MEX-5/TCR-2 RNA interaction inhibitors, dose response, biochemical, C. elegans, fluorescence polarization (AID 1960)
# T1 sequence (Q9XUB2 whole entry): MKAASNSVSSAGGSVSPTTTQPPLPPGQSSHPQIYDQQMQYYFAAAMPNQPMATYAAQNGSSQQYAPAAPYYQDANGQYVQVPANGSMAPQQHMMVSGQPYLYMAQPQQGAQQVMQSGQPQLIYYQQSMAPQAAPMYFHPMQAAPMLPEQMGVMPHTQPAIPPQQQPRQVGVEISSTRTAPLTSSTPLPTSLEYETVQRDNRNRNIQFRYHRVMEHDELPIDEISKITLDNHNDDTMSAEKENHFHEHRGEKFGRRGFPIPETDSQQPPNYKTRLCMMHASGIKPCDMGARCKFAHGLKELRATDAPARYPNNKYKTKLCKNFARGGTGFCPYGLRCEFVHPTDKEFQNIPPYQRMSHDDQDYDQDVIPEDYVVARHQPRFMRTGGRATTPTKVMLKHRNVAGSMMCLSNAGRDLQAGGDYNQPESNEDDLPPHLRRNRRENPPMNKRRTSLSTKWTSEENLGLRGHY
# [4] = biological target: T2, RNA-binding protein pos-1 (Caenorhabditis elegans, UniProt G5EF15); assay: inhibitors of POS-1/mex-3 RNA binding, dose response, biochemical, fluorescence polarization (AID 1964);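 further: purified POS-1 fused to maltose binding protein made in E. coli; potency of compounds blocking POS-1 binding to fluorescent RNA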
# T2 sequence (G5EF15 whole entry): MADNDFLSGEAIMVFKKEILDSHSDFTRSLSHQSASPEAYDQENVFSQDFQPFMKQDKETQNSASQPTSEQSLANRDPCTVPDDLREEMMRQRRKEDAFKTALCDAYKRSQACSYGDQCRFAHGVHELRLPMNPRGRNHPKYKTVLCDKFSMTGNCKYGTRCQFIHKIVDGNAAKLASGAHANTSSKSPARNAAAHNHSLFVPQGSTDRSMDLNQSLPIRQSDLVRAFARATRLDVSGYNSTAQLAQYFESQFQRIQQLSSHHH
# [5] = test system: Streptococcus sp. 'group A'; assay: growth inhibition of control SK(-) GAS strain, dose response, counter-screen for streptokinase expression inhibitor project, luminescence, kanamycin, BacTiterGlo, confirmation (AID 1900); assay type: functional, organism-based
# [6] = test system: Streptococcus; assay: Group A Streptococcus viability loss, dose response, counter-screen for streptokinase expression inhibitor project, luminescence, BacTiterGlo (AID 1915); assay type: functional, organism-based;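 further: potency for reduction of bacterial viability or growth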
# [7] = biological target: T3, Streptokinase A (Streptococcus pyogenes serotype M1, UniProt P10520); assay: S. pyogenes streptokinase expression inhibitors, potency, dose response, plasminogen activation absorbance, OD405 (AID 1914); assay type: functional, Streptococcus pyogenes M1 GAS;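 further: secreted streptokinase activity via plasminogen activation per viability signal from cell pellet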
# T3 sequence (P10520 whole entry): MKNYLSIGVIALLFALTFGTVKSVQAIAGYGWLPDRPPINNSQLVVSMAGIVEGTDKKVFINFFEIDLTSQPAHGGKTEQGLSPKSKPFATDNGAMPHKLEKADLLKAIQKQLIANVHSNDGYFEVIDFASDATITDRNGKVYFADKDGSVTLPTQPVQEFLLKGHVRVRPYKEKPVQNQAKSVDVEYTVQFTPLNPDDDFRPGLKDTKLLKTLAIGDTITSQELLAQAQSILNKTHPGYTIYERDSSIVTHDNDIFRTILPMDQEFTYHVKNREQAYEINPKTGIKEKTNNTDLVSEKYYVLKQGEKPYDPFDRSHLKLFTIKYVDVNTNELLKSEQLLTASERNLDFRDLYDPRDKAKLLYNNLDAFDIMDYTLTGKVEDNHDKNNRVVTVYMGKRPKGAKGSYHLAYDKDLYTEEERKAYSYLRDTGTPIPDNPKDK
# [8] = biological target: T4, Protein RecA (Mycobacterium tuberculosis, UniProt P9WHJ3); assay: Fluorescence Cell-Free Homogeneous Dose Retest to Identify Inhibitors of RecA-Intein Splicing Activity. [Related pubchem assays (depositor defined):AID2097, AID2223, AID489010, AID492950]; assay type: functional
# T4 sequence (P9WHJ3 whole entry): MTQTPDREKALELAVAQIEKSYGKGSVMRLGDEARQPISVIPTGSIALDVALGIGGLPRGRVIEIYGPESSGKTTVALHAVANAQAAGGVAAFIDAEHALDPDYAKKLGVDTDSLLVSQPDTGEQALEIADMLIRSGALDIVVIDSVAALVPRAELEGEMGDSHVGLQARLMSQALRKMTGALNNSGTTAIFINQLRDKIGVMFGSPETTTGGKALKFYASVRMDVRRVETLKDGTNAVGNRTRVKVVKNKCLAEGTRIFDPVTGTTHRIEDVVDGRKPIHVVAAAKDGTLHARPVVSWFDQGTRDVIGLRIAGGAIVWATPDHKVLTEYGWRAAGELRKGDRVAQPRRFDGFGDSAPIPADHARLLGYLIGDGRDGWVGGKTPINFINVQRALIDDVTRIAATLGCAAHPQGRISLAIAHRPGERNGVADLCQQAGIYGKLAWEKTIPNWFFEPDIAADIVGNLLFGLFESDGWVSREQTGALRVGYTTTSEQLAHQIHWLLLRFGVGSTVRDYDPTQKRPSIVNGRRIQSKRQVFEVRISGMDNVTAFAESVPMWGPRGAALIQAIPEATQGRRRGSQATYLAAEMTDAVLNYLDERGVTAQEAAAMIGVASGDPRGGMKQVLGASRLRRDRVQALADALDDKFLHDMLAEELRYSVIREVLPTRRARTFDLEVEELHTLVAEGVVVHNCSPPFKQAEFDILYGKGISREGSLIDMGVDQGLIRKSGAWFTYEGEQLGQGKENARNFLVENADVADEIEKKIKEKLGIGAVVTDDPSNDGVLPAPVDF
# [9] = biological target: T5, Replicative DNA helicase DnaB (Mycobacterium tuberculosis, UniProt P9WMR3); assay: DnaB intein splicing inhibitors, dose response, biochemical, cell-free fluorescence (AID 449749); assay type: functional
# T5 sequence (P9WMR3 whole entry): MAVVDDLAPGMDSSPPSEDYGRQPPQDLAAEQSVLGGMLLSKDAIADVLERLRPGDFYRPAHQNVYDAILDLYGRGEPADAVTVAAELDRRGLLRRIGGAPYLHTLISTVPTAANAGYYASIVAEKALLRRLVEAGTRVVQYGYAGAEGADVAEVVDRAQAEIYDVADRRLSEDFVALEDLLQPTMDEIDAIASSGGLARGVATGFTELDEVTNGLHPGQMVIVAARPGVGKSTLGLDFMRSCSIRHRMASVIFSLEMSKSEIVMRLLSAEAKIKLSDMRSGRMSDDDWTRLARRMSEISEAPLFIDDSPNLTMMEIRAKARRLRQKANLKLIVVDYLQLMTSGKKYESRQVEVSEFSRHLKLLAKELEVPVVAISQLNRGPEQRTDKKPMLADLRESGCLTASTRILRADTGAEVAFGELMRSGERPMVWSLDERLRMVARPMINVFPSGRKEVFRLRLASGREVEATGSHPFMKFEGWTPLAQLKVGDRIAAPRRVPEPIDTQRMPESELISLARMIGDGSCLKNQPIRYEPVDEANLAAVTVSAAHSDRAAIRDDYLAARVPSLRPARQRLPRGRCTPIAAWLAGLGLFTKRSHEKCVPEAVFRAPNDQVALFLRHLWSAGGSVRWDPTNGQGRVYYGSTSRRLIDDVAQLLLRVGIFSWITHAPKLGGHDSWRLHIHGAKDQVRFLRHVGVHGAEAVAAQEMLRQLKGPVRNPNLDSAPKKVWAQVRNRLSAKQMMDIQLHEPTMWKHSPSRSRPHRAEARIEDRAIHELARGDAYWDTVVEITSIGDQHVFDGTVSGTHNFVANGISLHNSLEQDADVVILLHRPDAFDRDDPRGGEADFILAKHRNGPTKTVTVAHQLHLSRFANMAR
# [10] = Luminescence Cell-Based Dose Retest to Confirm Inhibitors of Cancer Stem Cells. [Related pubchem assays (depositor defined):AID2717, AID2721]; assay type: functional; conditions: Homo sapiens
# [11] = biological target: Cytochrome P450 3A4 (Homo sapiens, UniProt P08684);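 further: CYP3A4 tested as one member of a cytochrome P450 panel screen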
# Sequence of Cytochrome P450 3A4 (P08684 whole entry): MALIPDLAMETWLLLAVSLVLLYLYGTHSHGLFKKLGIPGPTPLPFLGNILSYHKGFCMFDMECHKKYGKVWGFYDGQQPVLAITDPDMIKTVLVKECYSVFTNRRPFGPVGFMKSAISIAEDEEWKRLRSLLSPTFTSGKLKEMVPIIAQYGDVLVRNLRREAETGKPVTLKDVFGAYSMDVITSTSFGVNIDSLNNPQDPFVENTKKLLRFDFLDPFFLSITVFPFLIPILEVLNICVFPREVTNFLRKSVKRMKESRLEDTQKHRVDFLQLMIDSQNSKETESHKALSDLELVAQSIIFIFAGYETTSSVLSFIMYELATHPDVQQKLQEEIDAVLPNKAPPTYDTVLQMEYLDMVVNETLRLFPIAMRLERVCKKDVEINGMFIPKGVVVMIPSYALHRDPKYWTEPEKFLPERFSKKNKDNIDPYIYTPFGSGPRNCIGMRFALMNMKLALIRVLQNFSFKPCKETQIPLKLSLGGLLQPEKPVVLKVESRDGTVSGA
structure (smiles),measurement,setting,value
Cc1cccc(-n2cnc3c(sc4nc(N5CCOCC5)c5c(c43)CCCC5)c2=O)c1,EC50,[1],50 µM (active)
same,EC50,[2],> 112 µM (not active)
COc1ccc(/C=C2\N=C(C)OC2=O)cc1OC,EC50,[3],> 300 µM (not active)
same,EC50,[4],> 300 µM (not active)
CCCc1cc(C(=O)Nc2ccc(C(=O)c3ccc(F)cc3)cc2)n(C)n1,EC50,[5],19.7 µM (active)
same,EC50,[6],> 150 µM (not active)
same,EC50,[7],46.9 µM (active)
Oc1nc2ccc(Cl)cc2c(-c2ccccc2)c1SC(=S)N1CCCCC1,EC50,[8],> 380 µM (inactive)
same,AC50,[9],> 380 µM (inactive)
Cc1ccccc1C1CC(c2ccccc2OC(F)F)Nc2ncnn21 (stereo not drawn),EC50,[1],> 112 µM (not active)
same,EC50,[2],> 112 µM (not active)
CC(C)=CCC/C(C)=C/Cc1c(O)ccc(C(=O)/C=C/c2ccc(O)cc2)c1O [XANTHOANGELOL],EC50,[5],1.05 µM (active)
same,EC50,[8],88.4 µM (active)
same,AC50,[10],9.49 µM (active)
same,EC50,[6],1.68 µM (active)
same,AC50,[9],3.19 µM (active)
Cc1ccc(S(=O)(=O)NCCC(=O)OCC(=O)NC(=O)c2cccn2C)cc1,EC50,[1],> 112 µM (not active)
same,EC50,[2],> 112 µM (not active)
N#CC1=C(N)C(C#N)(C#N)[C@H](c2ccsc2)[C@H]2COCC=C12,EC50,[3],> 300 µM (not active)
same,EC50,[4],> 300 µM (not active)
CCc1ccccc1N1C(=O)NC(=O)/C(=C\c2cc(C)n(C)c2C)C1=O,EC50,[3],> 300 µM (inconclusive)
same,EC50,[4],> 300 µM (not active)
Cc1cc(/C=C2/C(=O)NC(=O)N(c3ccc(Br)cc3)C2=O)c(C)n1C,EC50,[3],53 µM (active)
same,EC50,[4],52.2 µM (active)
CCOC(=O)Nc1ccc2c(COC(=O)CNS(=O)(=O)c3cccc(Br)c3)cc(=O)oc2c1,EC50,[1],> 112 µM (not active)
same,EC50,[2],> 112 µM (not active)
COC(=O)c1c(NC(=O)/C=C/C(=O)O)sc(Cc2ccccc2)c1C,EC50,[8],7.93 µM (active)
same,AC50,[9],3.23 µM (active)
O=C(Cc1ccc(Br)cc1)Nc1nc2ccccc2[nH]1,EC50,[5],> 150 µM (not active)
same,EC50,[6],> 150 µM (not active)
same,EC50,[7],> 150 µM (not active)
Cc1ccc(C2CC(c3ccccc3OC(F)F)Nc3ncnn32)cc1 (stereo not drawn),EC50,[1],> 112 µM (not active)
same,EC50,[2],> 112 µM (not active)
O=C(CSC(=S)N1CCOCC1)c1cc(Br)cc(Br)c1O,EC50,[5],25 µM (active)
same,EC50,[6],> 150 µM (not active)
same,EC50,[7],> 150 µM (not active)
Cc1cccc(-n2ncc3c2CCCC3NC(=O)CCN2Cc3ccccc3C2=O)c1C (stereo not drawn),EC50,[5],> 150 µM (not active)
same,EC50,[6],> 150 µM (not active)
same,EC50,[7],> 150 µM (not active)
COC(=O)N/N=C/c1c[n+]([O-])c2ccccc2[n+]1[O-] [CARBADOX],EC50,[5],9.12 µM (active)
same,EC50,[6],11.5 µM (active)
same,EC50,[7],> 150 µM (not active)
CC1CCCCN1Cc1nc2c(c(=O)n(C)c(=O)n2C)n1CCCc1ccccc1 (stereo not drawn),EC50,[1],> 112 µM (not active)
same,EC50,[2],> 112 µM (not active)
N#Cc1c(C#N)c(-c2ccccc2)n(-c2ccc(C(=O)O)cc2)c1N,EC50,[3],> 300 µM (not active)
same,EC50,[4],> 300 µM (not active)
Nc1cccc2c(O)cccc12,EC50,[8],15.5 µM (active)
same,AC50,[9],22.1 µM (active)
CCCc1c(C(=O)NNc2cccc(Cl)c2)cnn1-c1ccccc1,EC50,[8],> 380 µM (inactive)
same,AC50,[9],10.7 µM (active)
Cc1cccc(CCNC(=O)c2cc(S(=O)(=O)N3CCOCC3)cn2C)c1,EC50,[1],> 112 µM (not active)
same,EC50,[2],> 112 µM (not active)
O=C(O)c1ccccc1-n1c(-c2ccccc2)cc2c1CCCC2=O,EC50,[3],> 300 µM (not active)
same,EC50,[4],> 300 µM (not active)
CCCc1cc(C(=O)NC2CCCC2)no1,EC50,[1],> 112 µM (not active)
same,EC50,[2],> 112 µM (not active)
Cc1c(NCc2cc(Cl)cc(Cl)c2O)c(=O)n(-c2ccccc2)n1C,EC50,[5],4.76 µM (active)
same,EC50,[6],> 150 µM (not active)
same,EC50,[7],21.1 µM (active)
COc1ccc(C(=O)NC(=S)NC(C)(C)C)cc1Br,AC50,[11],14.1 µM (inconclusive)
same,EC50,[1],> 112 µM (not active)
same,EC50,[2],> 112 µM (not active)
CC1(C)CC(=O)C2=C(C1)OC(N)=C(C#N)[C@@H]2c1ccccc1[N+](=O)[O-],EC50,[3],23.9 µM (active)
same,EC50,[4],22.3 µM (inconclusive)
Cc1ccccc1CCNC(=O)C1CCN(S(=O)(=O)c2ccc(-n3cnnn3)cc2)CC1,EC50,[1],> 112 µM (not active)
same,EC50,[2],> 112 µM (not active)
COc1cc(C(c2c(C)n[nH]c2O)c2c(C)n[nH]c2O)cc(OC)c1OC,EC50,[8],0.262 µM (active)
same,AC50,[9],0.313 µM (active)
